From ChEMBL document CHEMBL1201862, “PubChem BioAssay data set” (2004)
Counter-ions that a name gives are not always drawn. The source made the active and inactive calls.

system: not listed separately; experiment: cytotoxicity toward NIH3T3 fibroblasts, dose response, counter-screen, cell-based, ATP luminescence, mouse fibroblasts (AID 2010); type: functional; conditions: not given;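 note: cells exposed to compound for about 90 hours before reading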
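Throughout, for AC50: cells exposed to compound for roughly 70 hours or longer before luminescence read.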

Structure (SMILES) | EC50
Cc1ccc2nc(Cl)c3cc(C(=O)N(CCN(C)C)Cc4ccco4)sc3c2c1 | > 60 µM (not active)

molecular target: T1, Heat shock factor protein 1 (Mus musculus, UniProt P38532); experiment: inhibition of MG132-induced HSE-luciferase signal, confirmation, cell-based, NIH3T3, luminescence, dose retest (AID 2382); type: functional; conditions: not given;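 note: NIH3T3 fibroblasts with HSF1-driven luciferase reporter stressed by proteasome inhibitor MG132; luminescence from HSF1-driven luciferase expression after 8 hours of MG132 stress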
T1 sequence (P38532 whole entry): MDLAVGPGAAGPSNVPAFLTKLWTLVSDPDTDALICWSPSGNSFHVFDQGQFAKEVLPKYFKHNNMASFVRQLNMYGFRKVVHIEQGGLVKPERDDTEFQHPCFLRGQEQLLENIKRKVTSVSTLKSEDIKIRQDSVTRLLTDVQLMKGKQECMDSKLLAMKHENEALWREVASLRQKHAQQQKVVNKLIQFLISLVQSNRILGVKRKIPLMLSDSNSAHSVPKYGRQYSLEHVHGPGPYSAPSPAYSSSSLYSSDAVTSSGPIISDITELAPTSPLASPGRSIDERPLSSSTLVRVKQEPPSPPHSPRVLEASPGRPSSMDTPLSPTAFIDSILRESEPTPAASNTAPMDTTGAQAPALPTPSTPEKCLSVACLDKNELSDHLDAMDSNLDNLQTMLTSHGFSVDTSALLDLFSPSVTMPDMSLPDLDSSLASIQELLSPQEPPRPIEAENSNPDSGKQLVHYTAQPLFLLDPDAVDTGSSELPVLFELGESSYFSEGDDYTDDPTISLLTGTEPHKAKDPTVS

Structure (SMILES) | EC50
Cc1nc2sc3c(NCc4ccco4)ncnc3c2c2c1COC(C)(C)C2 | > 195 µM (not active)
Cc1cc(C)cc(OCC(O)CN2CC(C)OC(C)C2)c1 (centres undefined) | 32.9 µM (active)
CCO/C(C)=C1/SC(=S)NC1=O | > 195 µM (not active)
CCOC(=O)c1c(NC(=O)CSc2nnc(-c3c[nH]c4ccccc34)n2C)sc2c1CCCC2 | > 195 µM (not active)
CC(C)(C)[C@H]1C=C(C(=O)Nc2ccccc2)O[C@@H](OCCCCO)C1 | 5.49 µM (active)
Cc1cc(C)c(NC(=O)Nc2ccc3c(c2)OCO3)c(C)c1 | > 195 µM (not active)
COc1cc(N2N=C(c3ccccc3)CC2c2ccccc2)c(C=O)cc1C=O (centres undefined) | > 195 µM (not active)
COc1cccc(N(C(=O)c2cccs2)c2nc3ccccc3s2)c1 | > 195 µM (not active)
COc1nc(-c2ccccc2)ccc1-c1noc(COc2ccccc2)n1 | > 195 µM (not active)
CC1(C)CC(=O)C(=NNc2ccc(OC(F)F)cc2)C(=O)C1 | > 195 µM (not active)
CCN1CCc2c(OCc3ccccc3)cccc2C1=O | 37.3 µM (active)
CC(C)(C)NC(=O)c1c(F)c(F)c(F)c(F)c1F | > 195 µM (not active)

molecular target: T2, Rac GTPase-activating protein 1 (Homo sapiens, UniProt Q9H0H5); experiment: MgcRacGAP GTPase-activating activity inhibitors, confirmation, biochemical, ADP Hunter fluorescence, primary and confirmatory (AID 624330); type: functional; conditions: not given
T2 sequence (Q9H0H5 whole entry): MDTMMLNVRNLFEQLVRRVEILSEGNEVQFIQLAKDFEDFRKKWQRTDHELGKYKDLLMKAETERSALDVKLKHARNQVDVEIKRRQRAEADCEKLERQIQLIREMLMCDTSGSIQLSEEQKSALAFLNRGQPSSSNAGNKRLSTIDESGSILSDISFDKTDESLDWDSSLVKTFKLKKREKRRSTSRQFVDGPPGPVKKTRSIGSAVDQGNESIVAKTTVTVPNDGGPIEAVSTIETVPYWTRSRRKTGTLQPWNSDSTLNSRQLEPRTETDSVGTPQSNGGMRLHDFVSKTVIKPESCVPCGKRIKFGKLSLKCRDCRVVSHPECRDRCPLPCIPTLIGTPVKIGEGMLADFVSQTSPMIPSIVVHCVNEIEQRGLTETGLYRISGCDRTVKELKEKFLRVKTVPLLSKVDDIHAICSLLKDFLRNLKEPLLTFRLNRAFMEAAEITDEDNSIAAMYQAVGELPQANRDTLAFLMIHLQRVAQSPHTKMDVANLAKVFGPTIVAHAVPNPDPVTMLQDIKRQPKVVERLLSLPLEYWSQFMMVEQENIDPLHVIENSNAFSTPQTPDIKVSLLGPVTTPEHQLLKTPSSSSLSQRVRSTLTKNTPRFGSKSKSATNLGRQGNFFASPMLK

Structure (SMILES) | IC50
Oc1ccc(/C=N/N=C/c2ccc(O)cc2)cc1 | 77.6 µM (active)
COc1ccc(CN2CCN(Cc3ccco3)CC2)cc1OC | 69.2 µM (active)
Cc1c(N=Nc2ccc(O)cc2)c(=O)n(-c2ccccc2)n1C | 19.8 µM (active)
O=C(c1cccnc1)N1CCN(Cc2cccc(Br)c2)CC1 | 117 µM (active)
O=C(CNC(=O)c1ccccc1Br)N/N=C/c1ccc(O)cc1 | 58.7 µM (active)
Cc1ccn2c(Nc3ccc4c(c3)OCO4)c(-c3ccc(O)cc3)nc2c1 | 39.7 µM (active)
Cc1[nH]c2ccccc2c1-c1csc(NC(=O)CSCCO)n1 | 122 µM (active)
COc1ccc(OC(=O)C2CC(=O)N(c3ccc(C)cc3)C2)cc1 (centres undefined) | 48.3 µM (active)
COc1ccc(NC2CCCN(C(=O)C3(C)CCCCC3)C2)cc1 (centres undefined) | 80.7 µM (active)
Oc1cc(Br)ccc1/C=N/c1ccc(N2CCCCC2)cc1 | 5.88 µM (active)

system: not listed separately; experiment: Luminescence Cell-Based Dose Retest to Confirm Inhibitors of Cancer Stem Cells. [Related pubchem assays (depositor defined):AID2717, AID2721]; type: functional; conditions: Homo sapiens

Structure (SMILES) | AC50
COc1cccc(O)c1CN1CCC(C(=O)Nc2ccc(-c3cccc(C)c3)cc2)CC1 | 6.71 µM (active)
Cc1ccc(-c2cc(C(=O)NCc3ccc4c(c3)OCO4)no2)cc1 | > 195 µM (inactive)
COc1ccc(C(=O)CSc2nnc(CN3CCCCC3)n2-c2ccc(Cl)cc2)cc1OC | 2.91 µM (active)
Cc1ccc2nc(Cl)c3cc(C(=O)N(CCN(C)C)Cc4ccco4)sc3c2c1 | 1.86 µM (active)
Clc1ccc(-c2nnc(-c3ccccc3)c(-c3ccccc3)n2)cc1 | 10.1 µM (active)
Cc1ccccc1OCC(O)Cn1c2ccccc2c2ccccc21 (centres undefined) | 5.66 µM (active)
CSc1ccc2c(c1)C(N1CCN(C)CC1)Cc1ccccc1S2 (centres undefined) | 11.1 µM (active)
CC/C(=C(\c1ccccc1)c1ccc(OCCN(C)C)cc1)c1ccccc1 [TAMOXIFEN CITRATE] | 4.53 µM (active)
Cn1cccc1-c1nc2ccccc2n1Cc1ccccc1 | 10.4 µM (active)
CCCCCCSc1ccc(-c2nc3cnccn3c2NCCCC)cc1 | 3.59 µM (active)

system: not listed separately; experiment: inhibitors of intracellular T. cruzi replication, confirmation, NIH3T3 host cells, beta-gal luminescence (AID 2044); type: functional, cell-based; conditions: not given;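 note: intracellular parasites grown in NIH/3T3 mouse fibroblasts as host cells; luminescent beta-galactosidase reporter signal from transgenic T. cruzi replicating inside host cells; inhibitors lower the luminescence signal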

Structure (SMILES) | EC50
Cc1ccc2nc(Cl)c3cc(C(=O)N(CCN(C)C)Cc4ccco4)sc3c2c1 | 0.123 µM (active)
